Test results reported in patent US9113629B2, “4-amino-6-(4-substituted-phenyl)-picolinates and 6-amino-2-(4-substituted-phenyl)-pyrimidine-4-carboxylates and their use as herbicides” (DOW AGROSCIENCES LLC, priority 2013, dated 2015).

Columns and labels:
Type in all cases: in vivo
[1] = tested on: ECHCG: barnyardgrass (Echinochloa crus-galli); assay: Pre-emergent Test I herbicidal activity; conditions: pre-emergence, 336 h, read-out: Visual Growth Reduction (%) 14 Days After Application, ECHCG; for pest or weed control at 3840 g/ha: 3.84 kg ai/ha
Description: (§1) Pre-emergent Test I Seeds of test species were planted into round plastic pots (5-inch diameter) containing sandy loam soil. After planting, all pots were sub-irrigated 16 h prior to compound application. Compounds were dissolved in a 97:3 v/v (volume/volume) mixture of acetone and dimethyl sulfoxide (DMSO) and diluted to the appropriate concentration in a final application solution containing water, acetone, isopropanol, DMSO and Agri-dex (crop oil concentrate) in a 59:23:15:1.0:1.5 v/v ratio and 0.02% w/v (weight/volume) of Triton X-155 to obtain the spray solution containing the highest application rate. Additional application rates were obtained by serial dilution of the high rate solution with the above application solution. Formulated compound (2.7 mL) was applied pipetted evenly over the soil surface followed by incorporation with water (15 mL). Following treatment, pots were returned to the greenhouse for the duration of the experiment. The greenhouse was programmed for an approximate 15 h photoperiod which was maintained at about 23-29° C. during the day and 22-28° C. during the night. Nutrients and water were added on a regular basis through surface irrigation and supplemental lighting was provided with overhead metal halide 1000-Watt lamps as necessary. Herbicidal effect ratings were obtained 14 days after treatment. All evaluations were made relative to appropriate controls on a scale of 0 to 100 where 0 represents no herbicidal effect and 100 represents plant death or lack of emergence from the soil.

[2] = tested on: IPOHE: ivyleaf morningglory (Ipomoea hederecea); assay: Pre-emergent Test I herbicidal activity; conditions: pre-emergence, 336 h, read-out: Visual Growth Reduction (%) 14 Days After Application, IPOHE; for pest or weed control at 3840 g/ha: 3.84 kg ai/ha
Description: as §1

[3] = tested on: HELAN: sunflower (Helianthus annuus); assay: Pre-emergent Test I herbicidal activity; conditions: pre-emergence, 336 h, read-out: Visual Growth Reduction (%) 14 Days After Application, HELAN; for pest or weed control at 3840 g/ha: 3.84 kg ai/ha
Description: as §1

[4] = tested on: AVEFA: wild oats (Avena fatua); assay: Pre-emergent Test I herbicidal activity; conditions: pre-emergence, 336 h, read-out: Visual Growth Reduction (%) 14 Days After Application, AVEFA
Description: as §1

[5] = tested on: AMARE: redroot pigwseed (Amaranthus retroflexus); assay: Pre-emergent Test I herbicidal activity; conditions: pre-emergence, 336 h, read-out: Visual Growth Reduction (%) 14 Days After Application, AMARE; for pest or weed control at 3840 g/ha: 3.84 kg ai/ha
Description: as §1

[6] = tested on: SETFA: giant foxtail (Setaria faberi); assay: Post-emergent Test I herbicidal activity; conditions: post-emergence, 336 h, read-out: Visual Growth Reduction (%) 14 Days After Application, SETFA; for pest or weed control at 3840 g/ha: 3.84 kg ai/ha
Description: (§2) Post-emergent Test I Seeds test species were obtained from commercial suppliers and planted into a 13 cm diameter-round pot containing soil-less media mix (metro-mix 360®, Sun Gro Horticulture). Postemergence treatments were planted 8-12 days prior to application and cultured in a greenhouse equipped with supplemental light sources to provide a 16 h photoperiod at 24-29° C. All pots were surface irrigated.
(§3) A weighted amount, determined by the highest rate to be tested, of each compound was dissolved in 1.3 mL acetone-DMSO (97:3, v/v) and diluted with 4.1 mL water-isopropanol-crop oil concentrate (78:20:2, v/v/v) containing 0.02% Triton X-155 to obtain concentrated stock solutions. Additional application rates were obtained by serial dilution of the high rate solution into a solution containing appropriate volume of 97:3 v/v mixture of acetone and DMSO and appropriate volume of an aqueous mixture of water, isopropyl alcohol, crop oil concentrate (78:20:2, v/v/v) containing 0.02% Triton X-155.
(§4) Formulated compounds were applied using a DeVilbiss® compressed air sprayer at 2-4 psi. Following treatment, pots were returned to the greenhouse for the duration of the experiment. All pots were sub-irrigated as need to provide optimum growing conditions. All pots were fertilized one time per week by subirrigating with Peters Peat-Lite Special® fertilizer (20-10-20).
(§5) […] All evaluations were made visually on a scale of 0 to 100 where 0 represents no activity and 100 represents complete plant death. Visual assessments of plant injury were made based on growth reduction, discoloration, leaf deformity and necrosis.

[7] = tested on: ECHCG: barnyardgrass (Echinochloa crus-galli); assay: Post-emergent Test I herbicidal activity; conditions: post-emergence, 336 h, read-out: Visual Growth Reduction (%) 14 Days After Application, ECHCG; for pest or weed control at 3840 g/ha: 3.84 kg ai/ha
Description: as §2, §3, §4, §5

[8] = tested on: IPOHE: ivyleaf morningglory (Ipomoea hederecea); assay: Post-emergent Test I herbicidal activity; conditions: post-emergence, 336 h, read-out: Visual Growth Reduction (%) 14 Days After Application, IPOHE; for pest or weed control at 3840 g/ha: 3.84 kg ai/ha
Description: as §2, §3, §4, §5

[9] = tested on: HELAN: sunflower (Helianthus annuus); assay: Post-emergent Test I herbicidal activity; conditions: post-emergence, 336 h, read-out: Visual Growth Reduction (%) 14 Days After Application, HELAN; for pest or weed control at 3840 g/ha: 3.84 kg ai/ha
Description: as §2, §3, §4, §5

[10] = tested on: AVEFA: wild oats (Avena fatua); assay: Post-emergent Test I herbicidal activity; conditions: post-emergence, 336 h, read-out: Visual Growth Reduction (%) 14 Days After Application, AVEFA; for pest or weed control at 3840 g/ha: 3.84 kg ai/ha
Description: as §2, §3, §4, §5

[11] = tested on: AMARE: redroot pigwseed (Amaranthus retroflexus); assay: Post-emergent Test I herbicidal activity; conditions: post-emergence, read-out: Visual Growth Reduction (%), AMARE; for pest or weed control at 3840 g/ha: 3.84 kg ai/ha
Description: as §2, §3, §4, §5

[12] = tested on: SETFA: giant foxtail (Setaria faberi); assay: Pre-emergent Test I herbicidal activity; conditions: pre-emergence, 336 h, read-out: Visual Growth Reduction (%) 14 Days After Application, SETFA
Description: as §1

`COC(=O)c1nc(-c2ccc(OC(F)F)cc2)c(F)c(N)c1Cl` [Compound 85] showed a pest or weed control at 3760 g/ha ([1]; 3.76 kg ai/ha) of 95 to 100%, a pest or weed control at 3760 g/ha ([2]; 3.76 kg ai/ha) of 30 to 44% and a pest or weed control at 3760 g/ha ([3]; 3.76 kg ai/ha) of 95 to 100%. The pest or weed control at 3760 g/ha ([4]; 3.76 kg ai/ha) was 75 to 84%, the pest or weed control at 3760 g/ha ([5]; 3.76 kg ai/ha) was 95 to 100% and the pest or weed control at 3760 g/ha ([6]; 3.76 kg ai/ha) was 85 to 94%. The pest or weed control at 3760 g/ha ([7]; 3.76 kg ai/ha) was 95 to 100%, the pest or weed control at 3760 g/ha ([8]; 3.76 kg ai/ha) was 30 to 44% and the pest or weed control at 3760 g/ha ([9]; 3.76 kg ai/ha) was 95 to 100%. For the same compound, the pest or weed control at 3760 g/ha ([10]; 3.76 kg ai/ha) was 30 to 44% and the pest or weed control at 3760 g/ha ([11]; 3.76 kg ai/ha) was 95 to 100%.

Work on `COC(=O)c1nc(-c2ccc(I)cc2)c(F)c(N)c1Cl` [Compound 118, Methyl 4-amino-6-(4-iodophenyl)-3-chloro-5-fluoropicolinate] yielded a pest or weed control at 2320 g/ha ([1]; 2.32 kg ai/ha) of 95 to 100%, a pest or weed control at 2320 g/ha ([2]; 2.32 kg ai/ha) of 95 to 100% and a pest or weed control at 2320 g/ha ([3]; 2.32 kg ai/ha) of 95 to 100%. For the same compound, the pest or weed control at 2320 g/ha ([4]; 2.32 kg ai/ha) was 95 to 100%, the pest or weed control at 2320 g/ha ([5]; 2.32 kg ai/ha) was 95 to 100% and the pest or weed control at 2320 g/ha ([6]; 2.32 kg ai/ha) was 95 to 100%. For the same compound, the pest or weed control at 2320 g/ha ([7]; 2.32 kg ai/ha) was 95 to 100%, the pest or weed control at 2320 g/ha ([8]; 2.32 kg ai/ha) was 95 to 100% and the pest or weed control at 2320 g/ha ([9]; 2.32 kg ai/ha) was 95 to 100%. For the same compound, the pest or weed control at 2320 g/ha ([10]; 2.32 kg ai/ha) was 95 to 100% and the pest or weed control at 2320 g/ha ([11]; 2.32 kg ai/ha) was 95 to 100%.

Work on `COC(=O)c1nc(-c2ccc(C#N)cc2)c(F)c(N)c1Cl` [Compound 142] yielded a pest or weed control at 3840 g/ha [1] of 30 to 44%, a pest or weed control at 3840 g/ha [2] of 95 to 100% and a pest or weed control at 3840 g/ha [3] of 95 to 100%. The pest or weed control at 3840 g/ha ([4]; 3.84 kg ai/ha) was 95 to 100%, the pest or weed control at 3840 g/ha [5] was 95 to 100% and the pest or weed control at 3840 g/ha [6] was 60 to 74%. It also gave a pest or weed control at 3840 g/ha [7] of 95 to 100%, a pest or weed control at 3840 g/ha [8] of 95 to 100% and a pest or weed control at 3840 g/ha [9] of 95 to 100%. The pest or weed control at 3840 g/ha [10] was 45 to 59% and the pest or weed control at 3840 g/ha [11] was 95 to 100%.

`COC(=O)c1nc(-c2ccc(C(F)F)c(F)c2)cc(N)c1Cl` [Compound 196] gave a pest or weed control at 3840 g/ha ([12]; 3.84 kg ai/ha) of 95 to 100%, a pest or weed control at 3840 g/ha [1] of 85 to 94% and a pest or weed control at 3840 g/ha [2] of 95 to 100%. The pest or weed control at 3840 g/ha [3] was 95 to 100%, the pest or weed control at 3840 g/ha [5] was 95 to 100% and the pest or weed control at 3840 g/ha [6] was 95 to 100%. For the same compound, the pest or weed control at 3840 g/ha [7] was 95 to 100%, the pest or weed control at 3840 g/ha [8] was 85 to 94% and the pest or weed control at 3840 g/ha [9] was 95 to 100%. The pest or weed control at 3840 g/ha [10] was 60 to 74% and the pest or weed control at 3840 g/ha [11] was 95 to 100%.

Work on `C=Cc1c(C(=O)OC)nc(-c2ccc(Cl)c(F)c2)c(F)c1N` [Compound 215, methyl 4-amino-6-(4-chloro-3-fluorophenyl)-5-fluoro-3-vinylpicolinate] yielded a pest or weed control at 3960 g/ha ([12]; 3.96 kg ai/ha) of 85 to 94%, a pest or weed control at 3960 g/ha ([1]; 3.96 kg ai/ha) of 95 to 100% and a pest or weed control at 3960 g/ha ([2]; 3.96 kg ai/ha) of 95 to 100%. The pest or weed control at 3960 g/ha ([3]; 3.96 kg ai/ha) was 95 to 100%, the pest or weed control at 3960 g/ha ([4]; 3.96 kg ai/ha) was 85 to 94% and the pest or weed control at 3960 g/ha ([5]; 3.96 kg ai/ha) was 95 to 100%. The pest or weed control at 3960 g/ha ([6]; 3.96 kg ai/ha) was 0 to 29%, the pest or weed control at 3960 g/ha ([7]; 3.96 kg ai/ha) was 85 to 94% and the pest or weed control at 3960 g/ha ([8]; 3.96 kg ai/ha) was 95 to 100%. The pest or weed control at 3960 g/ha ([9]; 3.96 kg ai/ha) was 95 to 100% and the pest or weed control at 3960 g/ha ([10]; 3.96 kg ai/ha) was 30 to 44%.
